Reference: patent publication US4694008A, “Chemical compounds” (Smith Kline & French Laboratories Limited, priority 1984, dated 1987)

How the values were obtained:
histamine H2 -receptors [1] = assay: inhibition of histamine-induced tachycardia in the isolated guinea pig right atrium
Text: (§1) The measurement of inhibition of histamine-stimulated secretion of gastric acid from the lumen-perfused stomachs of rats anaesthetised with urethane, and the measurement of inhibition of histamine-induced tachycardia in the isolated guinea pig right atrium, are detailed in U.S. Pat. No. 4,385,058.

histamine H2 -receptors [2] = target: T1, histamine H2 -receptors (Rattus norvegicus, UniProt P25102); assay: inhibition of histamine-stimulated secretion of gastric acid, lumen-perfused stomachs of rats anaesthetised with urethane; type: in vivo; details: iv, read-out: ED50 values in the lumen-perfused rat test
T1 construct: histamine-stimulated secretion of gastric acid from the lumen-perfused stomachs of rats anaesthetised with urethane; from tissue; host or cells: stomach of the anaesthetised rat (in vivo, lumen-perfused)
T1 sequence (P25102 whole entry, the tested form may be a part): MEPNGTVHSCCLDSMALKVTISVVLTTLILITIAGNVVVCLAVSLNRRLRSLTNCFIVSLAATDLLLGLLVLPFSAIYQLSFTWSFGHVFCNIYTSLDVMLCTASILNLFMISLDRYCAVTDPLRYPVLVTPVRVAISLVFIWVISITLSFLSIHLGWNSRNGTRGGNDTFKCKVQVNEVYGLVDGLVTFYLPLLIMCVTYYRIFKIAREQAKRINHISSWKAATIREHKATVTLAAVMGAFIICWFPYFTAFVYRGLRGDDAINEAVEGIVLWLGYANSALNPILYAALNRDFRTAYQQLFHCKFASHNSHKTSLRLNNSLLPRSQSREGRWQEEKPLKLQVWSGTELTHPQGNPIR
Text: These are actions of histamine which, according to Ash and Schild, Brit. J. Pharmac. Chemother. 27 247 (1966), are not mediated by histamine H1 -receptors.
as §1

ED50 (histamine H2 -receptors [2]) [µmol/kg]	SMILES	pA2 values in the guinea pig atrium test (histamine H2 -receptors [1])
< 0.1	COc1cnc(NCCCOc2cccc(CN3CCCCC3)c2)[nH]c1=O [Example 5, 2-[3-[3-(Piperidinomethyl)phenoxy]propylamino]-5-methoxypyrimidin-4-one]	more than seven
< 0.1	O=c1[nH]c(CCCOc2cccc(CN3CCCCC3)c2)ncc1OCc1ccccc1 [Example 1, 2-[3-[3-(Piperidinomethyl)phenoxy]propyl]-5-benzyloxypyrimidin-4-one]	more than seven
